The values that follow come from patent publication US20230270867A1, “CONJUGATE IN WHICH FL118 DRUG IS LINKED TO ACID-SENSITIVE LINKER, AND IMMUNOCONJUGATE USING SAME” (PINOTBIO, INC., priority 2020, published 2023).

What is called TGI is the reduction of tumour growth relative to the control group. A high value points to a stronger effect on the tumour. One may read the IC50 as the point on the concentration scale where inhibition reaches its midpoint. Read a low IC50 as greater potency in that assay.

For one assay, the system named is MDA-MB-468 cells. In words: In vivo drug efficacy, MDA-MB-468 xenograft model (sacituzumab / Example 9). Set-up: species or system mice. The following applies: MDA-MB-468 model, Group 2, dose not given.
The subject of assay [1] is various cancer cell lines. Kind of assay: Cytotoxicity of FL118 in various cancer cell lines. In kind it is cell-based. The settings on record: 140 cell lines originating from various cancers; against most cancer cells.

As for “sacituzumab: Trop-2 target antibody; control”, the Tumor volume is 200.20 ± 30.90 mm^3 in the assay with MDA-MB-468 cells (Day 0) and 433.08±126.82 mm^3 in the assay with MDA-MB-468 cells (Day 21). For the same compound, in the assay with MDA-MB-468 cells (Day 21), the TGI is 43.6%.
`CCC1(O)C(=O)OCc2c1cc1n(c2=O)Cc2cc3cc4c(cc3nc2-1)OCO4` (stereo in doubt) [FL118, (4S)-4-ethyl-4-hydroxy-8,9-methylenedioxy-1H-pyrano[3′,4′:6,7]indolizino[1,2-b]quinoline-3,14(4H,12H)-dione] yielded an IC50 in assay [1] of less than 0.1 µM.
